The source of these data is patent US8901118B2, “Compounds and methods for kinase modulation, and indications therefor” (Plexxikon Inc., priority 2010, dated 2014).

Assay [1] has as its target CYP2C9 (Homo sapiens, UniProt P11712). Put plainly: CYP2C9 inhibition (fluorescent substrate MFC). It counts as in vitro ADME. As to conditions: read-out: Cyp IC50 2C9. How it is done: CYP (Cytochrome P450) enzymes are the major drug metabolizing enzymes present in the liver. The inhibition of CYP enzyme activity (IC50) for each of CYP1A2, CYP2C19, CYP2C9, CYP2D6, CYP3A4(BFC) and CYP3A4(BQ) is determined for compounds, where inhibition of metabolism of a known substrate leads to a decrease in the fluorescence of the metabolized product. The fluorescence of the product is monitored as a function of compound concentration. Compounds are dissolved in DMSO to a concentration of 100 mM. These are diluted 1 μL into 82 μL of acetonitrile. An 11 μL aliquot of this solution is then added to 204 μL of cofactor mix (1.3% NADPH Regeneration system Solution A, 1.04% NADPH Regeneration system Solution B from BD Biosciences, 5% acetonitrile and 0.05% DMSO). These are then serially diluted 1:1 (160 μL to 160 μL co-factor mix) for a total of 10 points. A 10 μL aliquot of this final mixture is dispensed into 384 well assay plates and incubated for 10 minutes at 37° C. […] Assay plates are incubated at 37° C. (CYP1A2-15 min; CYP2C9-45 min; CYP2C19, 2D6 and 3A4-30 min) and read in a Tecan Safire 2 plate reader (CYP1A2, 2C19 and 3A4 409 ex/460 em; CYP2C9 and 2D6 409 ex/530 em). The signal versus compound concentration is used to determine the IC50. The enzymes and substrates for this assay are obtained from BD Biosciences.

Assay [2] concerns the target T1, BCR-NTRK2 BaF3 cells (Homo sapiens, UniProt Q16620).
T1 construct: fused on or other part: P11274 (Breakpoint cluster region protein)
Put plainly: BaF3 BCR-NTRK2 cell proliferation assay (ATPlite). As to conditions: read-out: Inhibition of Cell Proliferation IC50, BCR/BaF3 TrkB. It counts as cell-based. How it is done:
Compounds are assessed in a variety of cell based assays. For example BaF3 cells engineered with any of BCR-FMS, BCR-KIT, BCR-FLT3, BCR-NTRK1, BCR-NTRK2, and BCR-NTRK3, are used in cell proliferation assays to assess inhibitory activity of Fms, Kit, Flt-3, TrkA, TrkB, and TrkC, respectively. An MV-4-11 (leukemia) cell proliferation assay is used to assess inhibitory activity in Flt-3, and SKNSH (human neuroblastoma) cell proliferation assay is used to assess efficacy of Fms/Trk inhibitors. Additional cells may be assayed similarly to assess the efficacy of Fms/Trk inhibitors, such as MiaPaCa (human pancreatic cancer) and Capan-1 (human pancreatic carcinoma) cells. Reagent and assay conditions are as follows: • BaF3 cells: • Maintained in RPMI containing 10% FBS, 1% PenStrep, 1% NEAA, and 1% L-Glutamine, supplemented with 1 mg/mL G418 and 5% WEHI-CM (or recombinant murine IL-3). • Confluent cells are split 1:50 to 1:100 every 3-4 days. • MV-4-11 cells: • Maintained in Iscove's Modified Dulbecco's Medium containing 10% FBS. • Confluent cells are split 1:4 every 3-4 days. • SKNSH cells: RPMI containing 10% FBS. On day 1, cells are counted, then centrifuged in a conical tube for 5 minutes at 1000 rpm. The supernatant is removed and cells are re-suspended as follows: • BaF3: resuspend in growth media +1 mg/mL G418 (without WEHFIL-3) to 2×10^5 cells/mL. • MV-4-11: resuspend in growth media to 5×10^5 cells/mL. • SKNSH: resuspend in growth media to 2×10^4 cells/mL. The cells are plated (50 μL, 150 μL for SKNSH cells) in each well of a 96-well dish (Corning 3610) and incubated at 37° C. in 5% CO2 overnight, cells plated to a final concentration of cells as follows: • BaF3: 10,000 cells per well. • MV-4-11: 25,000 cells per well. • SKNSH: 3,000 cells per well. On day 2, compound at a maximum concentration of 5 mM is serially diluted 1:3 for a total of 8 point titration with DMSO as a control. A 1 μL aliquot of each dilution point is added to 249 μL growth media and 50 μL is added to a well containing cells, providing 10 μM compound for the maximum concentration point. The cells are incubated for 3 days at 37° C. in 5% CO2. For SKNSH cells, a 0.75 μL aliquot of appropriate dilution in DMSO is added to 150 μL of cells. On day 5, ATPlite 1 step Luminescence Assay System (Perkin Elmer #6016739) is brought to room temperature along with the cell cultures. ATPlite is added to each well as follows: • BaF3: 25 μL per well. • MV-4-11: 40 μL per well. • SKNSH: 20 μL per well. The cells are incubated at room temperature for 10 minutes, then luminescence is read on Safire reader. The measured luminescence correlates directly with cell number, such that the reading as a function of compound concentration is used to determine the IC50 value.
It is understood that the results of these assays may vary as assay conditions are varied. Inhibition levels determined under the conditions described herein represent a relative activity for the compounds tested under the specific conditions employed. The cell based assays are likely to show variability due to the complexity of the system and the sensitivity thereof to any changes in the assay conditions. […] Results for compounds that are tested and show substantially no inhibition below the highest tested concentration are represented as “-” in the tables below. In some instances, the compounds were not tested in all of the assays, or assay results were not valid, as indicated by NA in the tables below.
In general terms: Cellular ATP, detected with luciferase, serves as a proxy for viable cell number.

T1 sequence (Q16620 538-807): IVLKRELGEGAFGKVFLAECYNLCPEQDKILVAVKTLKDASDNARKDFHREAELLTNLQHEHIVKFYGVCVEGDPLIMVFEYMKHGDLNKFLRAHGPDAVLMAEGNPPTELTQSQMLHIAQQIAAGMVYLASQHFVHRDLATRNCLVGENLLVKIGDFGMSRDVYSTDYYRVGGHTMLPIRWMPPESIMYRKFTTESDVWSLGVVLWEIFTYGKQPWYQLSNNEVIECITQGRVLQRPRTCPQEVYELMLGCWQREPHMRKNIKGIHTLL
Sequence of CYP2C9 (P11712 whole entry): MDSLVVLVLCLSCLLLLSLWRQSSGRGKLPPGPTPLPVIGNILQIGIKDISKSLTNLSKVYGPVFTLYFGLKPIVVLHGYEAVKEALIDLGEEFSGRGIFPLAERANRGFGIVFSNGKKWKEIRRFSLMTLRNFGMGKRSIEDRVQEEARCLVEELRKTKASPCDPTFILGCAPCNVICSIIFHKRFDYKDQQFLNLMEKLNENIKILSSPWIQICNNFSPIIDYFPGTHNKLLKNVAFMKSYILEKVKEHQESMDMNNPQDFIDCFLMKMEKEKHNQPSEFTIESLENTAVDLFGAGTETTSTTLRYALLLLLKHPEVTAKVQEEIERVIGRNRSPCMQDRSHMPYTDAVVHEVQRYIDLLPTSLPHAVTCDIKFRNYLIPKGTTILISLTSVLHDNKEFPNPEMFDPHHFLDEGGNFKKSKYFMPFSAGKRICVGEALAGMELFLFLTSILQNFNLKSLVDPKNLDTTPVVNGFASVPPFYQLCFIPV

Take `COc1ccc(Nc2ccc(C(=O)c3c[nH]c4ncnc(NC(C)C)c34)c(F)n2)cn1` [Compound P-4066, [2-fluoro-6-[(6-methoxy-3-pyridyl)amino]-3-pyridyl]-[4-(isopropylamino)-7H-pyrrolo[2,3-d]pyrimidin-5-yl]methanone]: the results for the IC50 in assay [1] and in assay [2] were greater than 10 µM and less than 0.01 µM, respectively.
In the same order, the values of `O=C(c1ccc(NC2CCC(F)(F)CC2)nc1)c1c[nH]c2ncnc(NCC(F)(F)F)c12` [Compound P-4087, [6-[(4,4-difluorocyclohexyl)amino]-3-pyridyl]-[4-(2,2,2-trifluoroethylamino)-7H-pyrrolo[2,3-d]pyrimidin-5-yl]methanone] are greater than 10 µM and less than 0.1 µM.
For the molecule `CNc1ncnc2[nH]cc(C(=O)c3ccc(Nc4ccc(C5CC5)nc4)nc3F)c12` [Compound P-4094, [6-[(6-cyclopropyl-3-pyridyl)amino]-2-fluoro-3-pyridyl]-[4-(methylamino)-7H-pyrrolo[2,3-d]pyrimidin-5-yl]methanone], the IC50 in assay [1] was less than 5 µM; in assay [2], less than 0.01 µM.
In the same order, the values of `COc1ccc(Nc2ccc(C(=O)c3c[nH]c4ncnc(NC5CCC5)c34)c(F)n2)cn1` [Compound P-4076, [4-(cyclobutylamino)-7H-pyrrolo[2,3-d]pyrimidin-5-yl]-[2-fluoro-6-[(6-methoxy-3-pyridyl)amino]-3-pyridyl]methanone] are greater than 10 µM and less than 0.01 µM.
Taken in the same sequence, the figures for `CCc1ccc(Nc2ccc(C(=O)c3c[nH]c4ncnc(NCC(F)(F)F)c34)c(F)n2)cn1` [Compound P-4120, [6-[(6-ethyl-3-pyridyl)amino]-2-fluoro-3-pyridyl]-[4-(2,2,2-trifluoroethylamino)-7H-pyrrolo[2,3-d]pyrimidin-5-yl]methanone] were less than 5 µM and less than 0.01 µM.
Taken in the same sequence, the figures for `Fc1ccc(Nc2ncc(Cc3c[nH]c4ncc(Cl)cc34)cn2)cc1` [Compound P-3012, [5-(5-Chloro-1H-pyrrolo[2,3-b]pyridin-3-ylmethyl)-pyrimidin-2-yl]-(4-fluoro-phenyl)-amine] were greater than 10 µM and less than 1 µM.
On to `COc1ccc(Nc2ccc(C(=O)c3c[nH]c4ncnc(NCC(F)(F)F)c34)c(F)n2)cn1` [Compound P-4084, [2-fluoro-6-[(6-methoxy-3-pyridyl)amino]-3-pyridyl]-[4-(2,2,2-trifluoroethylamino)-7H-pyrrolo[2,3-d]pyrimidin-5-yl]methanone], for which the IC50 in assay [1] was greater than 10 µM; in assay [2], less than 0.01 µM.
With `COc1ccc(Nc2ccc(C(=O)c3c[nH]c4ncnc(NCC5CC5)c34)c(F)n2)cn1` [Compound P-4067, [4-(cyclopropylmethylamino)-7H-pyrrolo[2,3-d]pyrimidin-5-yl]-[2-fluoro-6-[(6-methoxy-3-pyridyl)amino]-3-pyridyl]methanone], the IC50 in assay [1] was greater than 10 µM; in assay [2], less than 0.01 µM.
In the same order, the values of `COc1cncc(Nc2ccc(C(=O)c3c[nH]c4ncnc(NC5CCCCC5)c34)c(F)n2)c1` [Compound P-4104, [4-(cyclohexylamino)-7H-pyrrolo[2,3-d]pyrimidin-5-yl]-[2-fluoro-6-[(5-methoxy-3-pyridyl)amino]-3-pyridyl]methanone] are greater than 10 µM and less than 0.1 µM.
In the same order, the values of `O=C(c1ccc(Nc2ccc(C(F)(F)F)nc2)nc1F)c1c[nH]c2ncnc(NC3CC3)c12` [Compound P-4091, [4-(cyclopropylamino)-7H-pyrrolo[2,3-d]pyrimidin-5-yl]-[2-fluoro-6-[[6-(trifluoromethyl)-3-pyridyl]amino]-3-pyridyl]methanone] are greater than 10 µM and less than 0.01 µM.
`Clc1ccc(Nc2ncc(Cc3c[nH]c4ncc(Cl)cc34)cn2)cc1` [Compound P-3011, (4-Chloro-phenyl)-[5-(5-chloro-1H-pyrrolo[2,3-b]pyridin-3-ylmethyl)-pyrimidin-2-yl]-amine]: the IC50 in assay [1] is greater than 10 µM; in assay [2] it was less than 1 µM.
Taken in the same sequence, the figures for `Cc1ccc(Nc2ccc(C(=O)c3c[nH]c4ncnc(NCC(F)(F)F)c34)c(F)n2)cn1` [Compound P-4112, [2-fluoro-6-[(6-methyl-3-pyridyl)amino]-3-pyridyl]-[4-(2,2,2-trifluoroethylamino)-7H-pyrrolo[2,3-d]pyrimidin-5-yl]methanone] were less than 5 µM and less than 0.1 µM.
Take `O=C(c1ccc(Nc2ccc(C3CC3)nc2)nc1F)c1c[nH]c2ncnc(NC3CC3)c12` [Compound P-4093, [4-(cyclopropylamino)-7H-pyrrolo[2,3-d]pyrimidin-5-yl]-[6-[(6-cyclopropyl-3-pyridyl)amino]-2-fluoro-3-pyridyl]methanone]: the IC50 is greater than 10 µM in assay [1] and less than 0.01 µM in assay [2].
As to `COc1ccc(Nc2ccc(C(=O)c3c[nH]c4ncnc(NC5CCCC5)c34)c(F)n2)cn1` [Compound P-4075, [4-(cyclopentylamino)-7H-pyrrolo[2,3-d]pyrimidin-5-yl]-[2-fluoro-6-[(6-methoxy-3-pyridyl)amino]-3-pyridyl]methanone], the IC50 is greater than 10 µM in assay [1] and less than 0.01 µM in assay [2].
For `COc1ccc(Nc2ccc(C(=O)c3c[nH]c4ncnc(NC5CCCCC5)c34)c(F)n2)cn1` [Compound P-4082, [4-(cyclohexylamino)-7H-pyrrolo[2,3-d]pyrimidin-5-yl]-[2-fluoro-6-[(6-methoxy-3-pyridyl)amino]-3-pyridyl]methanone], the figures for the IC50 in assay [1] and in assay [2] were greater than 10 µM and less than 0.01 µM, respectively.
Taken in the same sequence, the figures for `CCc1ccc(Nc2ccc(C(=O)c3c[nH]c4ncnc(NCC(C)C)c34)c(F)n2)cn1` [Compound P-4121, [6-[(6-ethyl-3-pyridyl)amino]-2-fluoro-3-pyridyl]-[4-(isobutylamino)-7H-pyrrolo[2,3-d]pyrimidin-5-yl]methanone] were greater than 10 µM and less than 0.01 µM.
As to `CCCNc1ncnc2[nH]cc(C(=O)c3ccc(Nc4ccc(CC)nc4)nc3F)c12` [Compound P-4122, [6-[(6-ethyl-3-pyridyl)amino]-2-fluoro-3-pyridyl]-[4-(propylamino)-7H-pyrrolo[2,3-d]pyrimidin-5-yl]methanone], the IC50 is 5 to 10 µM in assay [1] and less than 0.01 µM in assay [2].
In the same order, the values of `CCc1ccc(Nc2ccc(C(=O)c3c[nH]c4ncnc(NC)c34)c(F)n2)cn1` [Compound P-4124, [6-[(6-ethyl-3-pyridyl)amino]-2-fluoro-3-pyridyl]-[4-(methylamino)-7H-pyrrolo[2,3-d]pyrimidin-5-yl]methanone] are less than 5 µM and less than 0.01 µM.
